Experimental data from patent US9624205B2, “Substituted 6,5-fused bicyclic heteroaryl compounds” (Epizyme, Inc., priority 2013, dated 2017).

Legend:
[1] = molecular target: wild-type PRC2 enzyme (WT EZH2) (Homo sapiens (Human), UniProt Q15910); assay: PRC2 enzyme assay on peptide substrate, wild-type EZH2; assay type: biochemical; conditions: wild-type PRC2, H3K27me0 peptide substrate
From the text: (§1) Protocol for Wild-Type and Mutant PRC2 Enzyme Assays
(§2) Peptides representative of human histone H3 residues 21-44 containing either an unmodified lysine 27 (H3K27me0) or dimethylated lysine 27 (H3K27me2) are synthesized with a C-terminal G(K-biotin) linker-affinity tag motif and a C-terminal amide cap by 21st Century Biochemicals. […] The sequences are listed below.
(§3) Human PRC2 enzymes are purified as 4-component enzyme complexes co-expressed in Spodoptera frugiperda (sf9) cells using a baculovirus expression system. […] The EED subunit contains an N-terminal FLAG tag that is used to purify the entire 4-component complex from sf9 cell lysates.
(§4) The assays are all performed in a buffer consisting of 20 mM bicine (pH=7.6), 0.5 mM DTT, 0.005% BSG and 0.002% Tween20, prepared on the day of use. Compounds in 100% DMSO (1 μL) are spotted into polypropylene 384-well V-bottom plates (Greiner) using a Platemate 2×3 outfitted with a 384-channel pipet head (Thermo). DMSO (1 μL) is added to columns 11, 12, 23, 24, rows A-H for the maximum signal control, and SAH, a known product and inhibitor of PRC2 (1 μL) is added to columns 11, 12, 23, 24, rows I-P for the minimum signal control. A cocktail (4 μL) containing the wild-type PRC2 enzyme and H3K27me0 peptide or any of the Y641 mutant enzymes and H3K27me2 peptide is added by Multidrop Combi (Thermo). The compounds are allowed to incubate with PRC2 for 30 min at 25° C., then a cocktail (10 μL) containing a mixture of non-radioactive and ^3H-SAM is added to initiate the reaction (final volume=[…]). In all cases, the final concentrations are as follows: wild-type or mutant PRC2 enzyme was 4 nM, SAH in the minimum signal control wells was 1 mM and the DMSO concentration was 1%. The assays are stopped by the addition of non-radioactive SAM (10 μL) to a final concentration of 600 μM, which dilutes the ^3H-SAM to a level where its incorporation into the peptide substrate is no longer detectable. 5 μL of the reaction in the 384-well polypropylene plate is then transferred to a 384-well Flashplate and the biotinylated peptides are allowed to bind to the streptavidin surface for at least 1 h before being washed three times with 0.1% Tween20 in a Biotek ELx405 plate washer. The plates are then read in a PerkinElmer TopCount platereader to measure the quantity of ^3H-labeled peptide bound to the Flashplate surface, measured as disintegrations per minute (dpm) or alternatively, referred to as counts per minute (cpm).
(§5) Where top and bottom are the normally allowed to float, but may be fixed at 100 or 0 respectively in a 3-parameter fit. The Hill Coefficient normally allowed to float but may also be fixed at 1 in a 3-parameter fit. Y is the % inhibition and X is the compound concentration.

[2] = molecular target: Y641F mutant PRC2 enzyme (EZH2 Y641F) (Homo sapiens (Human), UniProt Q15910, Y641F); assay: PRC2 enzyme assay on peptide substrate, EZH2 Y641F mutant; assay type: biochemical; conditions: EZH2 Y641F PRC2, H3K27me2 peptide substrate
From the text: as §1, §2, §3, §4, §5

Y641F mutant PRC2 enzyme (EZH2 Y641F), sequence (Q15910 whole entry Y641F): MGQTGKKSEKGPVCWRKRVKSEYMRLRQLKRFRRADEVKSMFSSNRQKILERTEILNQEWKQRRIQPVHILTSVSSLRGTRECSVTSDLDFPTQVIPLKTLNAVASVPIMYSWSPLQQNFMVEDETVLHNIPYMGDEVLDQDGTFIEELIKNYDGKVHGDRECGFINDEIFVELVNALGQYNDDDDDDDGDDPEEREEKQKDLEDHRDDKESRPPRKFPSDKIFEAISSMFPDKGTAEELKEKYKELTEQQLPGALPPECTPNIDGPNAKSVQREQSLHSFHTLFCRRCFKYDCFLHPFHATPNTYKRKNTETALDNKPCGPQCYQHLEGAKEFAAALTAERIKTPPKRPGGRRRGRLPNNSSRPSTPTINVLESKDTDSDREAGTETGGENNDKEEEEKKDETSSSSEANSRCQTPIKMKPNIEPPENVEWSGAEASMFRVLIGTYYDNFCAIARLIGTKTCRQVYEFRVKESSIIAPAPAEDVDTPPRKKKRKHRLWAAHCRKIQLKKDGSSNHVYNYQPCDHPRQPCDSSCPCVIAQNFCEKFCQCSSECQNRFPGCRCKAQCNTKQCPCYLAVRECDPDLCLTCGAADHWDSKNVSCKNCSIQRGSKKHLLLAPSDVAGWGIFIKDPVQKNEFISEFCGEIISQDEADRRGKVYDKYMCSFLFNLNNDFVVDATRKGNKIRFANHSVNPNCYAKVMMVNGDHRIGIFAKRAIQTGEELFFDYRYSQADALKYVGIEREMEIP
Y641F mutant PRC2 enzyme (EZH2 Y641F), sequence (O75530 whole entry partner): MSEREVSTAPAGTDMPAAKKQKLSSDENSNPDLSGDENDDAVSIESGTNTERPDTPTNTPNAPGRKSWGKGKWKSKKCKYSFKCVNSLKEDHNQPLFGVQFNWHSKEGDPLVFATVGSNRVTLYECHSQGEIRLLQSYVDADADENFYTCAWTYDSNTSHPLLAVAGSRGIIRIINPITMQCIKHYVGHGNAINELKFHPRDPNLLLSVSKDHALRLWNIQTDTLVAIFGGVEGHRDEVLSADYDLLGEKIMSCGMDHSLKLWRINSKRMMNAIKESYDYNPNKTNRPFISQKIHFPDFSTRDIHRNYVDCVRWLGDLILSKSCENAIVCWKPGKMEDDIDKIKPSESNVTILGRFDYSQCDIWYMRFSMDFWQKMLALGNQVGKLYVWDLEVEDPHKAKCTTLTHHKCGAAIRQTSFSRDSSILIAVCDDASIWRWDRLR
Y641F mutant PRC2 enzyme (EZH2 Y641F), sequence (Q15022 whole entry partner): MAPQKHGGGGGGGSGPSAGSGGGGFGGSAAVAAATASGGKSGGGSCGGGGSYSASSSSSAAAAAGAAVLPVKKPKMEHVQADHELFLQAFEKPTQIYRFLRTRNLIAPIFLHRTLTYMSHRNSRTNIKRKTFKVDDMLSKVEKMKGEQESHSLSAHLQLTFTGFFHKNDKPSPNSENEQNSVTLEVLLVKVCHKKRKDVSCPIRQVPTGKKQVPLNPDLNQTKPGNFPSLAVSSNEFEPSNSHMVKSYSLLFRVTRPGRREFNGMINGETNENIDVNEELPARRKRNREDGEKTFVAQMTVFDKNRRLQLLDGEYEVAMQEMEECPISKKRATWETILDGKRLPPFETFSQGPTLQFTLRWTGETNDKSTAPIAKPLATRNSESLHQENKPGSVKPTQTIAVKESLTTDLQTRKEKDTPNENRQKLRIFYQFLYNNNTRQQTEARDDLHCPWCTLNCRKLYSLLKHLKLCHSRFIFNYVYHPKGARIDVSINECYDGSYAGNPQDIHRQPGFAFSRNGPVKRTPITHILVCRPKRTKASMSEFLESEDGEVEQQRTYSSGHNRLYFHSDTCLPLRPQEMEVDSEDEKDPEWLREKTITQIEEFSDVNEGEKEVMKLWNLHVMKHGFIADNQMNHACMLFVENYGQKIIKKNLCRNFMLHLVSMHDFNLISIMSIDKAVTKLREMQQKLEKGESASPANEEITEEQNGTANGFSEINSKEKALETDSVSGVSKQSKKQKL
Y641F mutant PRC2 enzyme (EZH2 Y641F), sequence (Q09028 whole entry partner): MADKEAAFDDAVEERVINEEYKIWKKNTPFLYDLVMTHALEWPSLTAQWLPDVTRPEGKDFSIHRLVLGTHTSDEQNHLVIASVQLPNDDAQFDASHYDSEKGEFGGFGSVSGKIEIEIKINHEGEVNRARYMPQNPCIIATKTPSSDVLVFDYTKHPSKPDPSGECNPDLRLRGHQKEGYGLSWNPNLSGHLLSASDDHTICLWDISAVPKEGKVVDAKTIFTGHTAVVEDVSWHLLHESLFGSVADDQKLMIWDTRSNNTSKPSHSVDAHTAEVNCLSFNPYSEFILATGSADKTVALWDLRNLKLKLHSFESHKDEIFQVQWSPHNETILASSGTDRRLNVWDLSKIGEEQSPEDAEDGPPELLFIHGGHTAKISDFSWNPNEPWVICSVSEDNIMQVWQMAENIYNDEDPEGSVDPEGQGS
wild-type PRC2 enzyme (WT EZH2), sequence (Q15910 whole entry): as the sequence (Q15910 whole entry Y641F) above, with F641Y counted along it
wild-type PRC2 enzyme (WT EZH2), sequence (O75530 whole entry partner): as the sequence (O75530 whole entry partner) above
wild-type PRC2 enzyme (WT EZH2), sequence (Q15022 whole entry partner): as the sequence (Q15022 whole entry partner) above
wild-type PRC2 enzyme (WT EZH2), sequence (Q09028 whole entry partner): as the sequence (Q09028 whole entry partner) above

Compound	IC50 [1] [µM]	IC50 [2] [µM]
COc1nn(C)c(C)c1CNC(=O)c1c(C)n(C(C)C2CCOCC2)c2ccccc12 (stereo not shown) [Compound 1, N-((3-methoxy-1,5-dimethyl-1H-pyrazol-4-yl)methyl)-2-methyl-1-(1-(tetrahydro-2H-pyran-4-yl)ethyl)-1H-indole-3-carboxamide]	> 50	28
Cc1c(CNC(=O)c2c(C)n(C(C)C3CCOCC3)c3ccccc23)c(=O)[nH]n1C (stereo not shown) [Compound 2, N-((1,5-dimethyl-3-oxo-2,3-dihydro-1H-pyrazol-4-yl)methyl)-2-methyl-1-(1-(tetrahydro-2H-pyran-4-yl)ethyl)-1H-indole-3-carboxamide]	> 50	> 50
CCC(C)n1cc(C)c2c(C(=O)NCc3c(OC)nn(C)c3C)cc(-c3ccc(N4CCNCC4)nc3)cc21 (stereo not shown) [Compound 3, 1-(sec-butyl)-N-((3-methoxy-1,5-dimethyl-1H-pyrazol-4-yl)methyl)-3-methyl-6-(6-(piperazin-1-yl)pyridin-3-yl)-1H-indole-4-carboxamide]	4.33	0.548
CCC(C)n1cc(C)c2c(C(=O)NCc3c(C)n(C)[nH]c3=O)cc(-c3ccc(N4CCNCC4)nc3)cc21 (stereo not shown) [Compound 4, 1-(sec-butyl)-N-((1,5-dimethyl-3-oxo-2,3-dihydro-1H-pyrazol-4-yl)methyl)-3-methyl-6-(6-(piperazin-1-yl)pyridin-3-yl)-1H-indole-4-carboxamide]	5.63	1.1
CCC(C)n1cc(C)c2c(C(=O)NCc3c(OC)nn(CC)c3C)cc(-c3ccc(N4CCNCC4)nc3)cc21 (stereo not shown) [Compound 5, 1-(sec-butyl)-N-((1-ethyl-3-methoxy-5-methyl-1H-pyrazol-4-yl)methyl)-3-methyl-6-(6-(piperazin-1-yl)pyridin-3-yl)-1H-indole-4-carboxamide]	22	1.99
